Assay results reported in paper PMC11091889, “Silver Organometallics that are Highly Potent Thioredoxin and Glutathione Reductase Inhibitors: Exploring the Correlations of Solution Chemistry with the Strong Antibacterial Effects” (ACS Infectious Diseases, 2024).

Key:
[1] = system: A. baumannii (DSM 30007, ATCC 19606); assay: Broth microdilution antibacterial assay; type: cell-based, Acinetobacter baumannii; conditions: n = 3, MHB; for MIC A. baumannii / EC50: mean ± standard error; for MIC A. baumannii / MIC A. baumannii (value in brackets): 22 h; for EC50: read-out: EC50 A. baumannii
Summary of the method: (§1)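 Broth microdilution used 2–8 × 10^5 CFU/mL inocula, with compounds serially diluted 64 to 1 μg/mL and incubated 22 h at 37 °C, read at 600 nm. A. baumannii, K. pneumoniae and P. aeruginosa were grown in MHB pH 7.4; E. faecium was grown in TSY pH 7.0–7.2. MIC and EC50 were obtained by curve fitting from three independent experiments.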

[2] = system: S. aureus MRSA (DSM 11822, ICB 25701); assay: microbe, parasite or virus in culture; type: cell-based, methicillin resistant S. aureus; conditions: n = 3, TSY; for MIC MRSA / EC50: mean ± standard error; for MIC MRSA / MIC MRSA (value in brackets): 22 h; for EC50: read-out: EC50 MRSA
Summary of the method: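 Broth microdilution in TSY (30 g/L trypticase soy broth, 3 g/L yeast extract, pH 7.0–7.2), inoculum 2–8 × 10^5 CFU/mL, compounds serially diluted 64 to 1 μg/mL, 22 h at 37 °C. Growth read as absorbance at 600 nm; MIC and EC50 obtained by curve fitting, three independent experiments.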

[3] = system: E. faecium (DSM 20477, ATCC 19434); assay: Broth microdilution antibacterial assay; type: cell-based, Enterococcus faecium; conditions: n = 3, TSY; for MIC E. faecium / EC50: mean ± standard error; for MIC E. faecium / MIC E. faecium (value in brackets): 22 h; for EC50: read-out: EC50 E. faecium
Summary of the method: as §1

[4] = system: P. aeruginosa (PA 14) biofilm; assay: Inhibition of biofilm formation, crystal violet staining; type: cell-based, Pseudomonas aeruginosa; conditions: for smallest active concentration for biofilm inhibition: concentration at which the % inhibition was found; for biofilm inhibition: ± SD, n = 4, at the respective smallest active concentration, 24 h
Text: Silver and its complexes can strongly affect the growth of biofilms.[56]−[58] In view of the promising activity against Gram-negative bacteria as mentioned above, we evaluated the inhibiting effect of the silver complexes on biofilm production by P. aeruginosa by a method based on crystal violet staining (Table 4 and Figure S14). Complexes 3a–c and 4a–c were selected for the test based on the results of solubility, stability, and antibacterial screening. […] The lower activity of 3c might be explained by its lower kinetic solubility in the aqueous environment (see Figure 4).
The antibiofilm activity was determined according to a literature method.[73] A 1 mL aliquot of P. aeruginosa (PA 14) was taken from −20 °C stock, incubated in 25 mL LB medium (Luria–Bertani Broth) in a 250 mL flask, and kept at 37 °C at 100 rpm overnight. The optical density at 600 nm (OD600) of the culture solution was adjusted to match the turbidity of a 0.1 McFarland standard in M63 medium.[74] Selected compounds were mixed with 150 μL of bacterial solution in U-bottom 96 well plates to the final respective concentrations (25–0.2 μg/mL). The plates were further incubated at 37 °C for 24 h while shaking at 150 rpm. Afterward, the plates were rinsed once with 150 μL of PBS buffer, and the biofilms were stained using 150 μL of crystal violet (0.1%) staining at room temperature for 15 min and then rinsed once with PBS buffer. After rinsing, 150 μL of ethanol (95%) was added, and the absorbance was quantified using a plate reader (Synergy 2, BioTek, Santa Clara, USA) at 550 nm. The resulting antibiofilm activity is presented as percentage of inhibition at the respective smallest active concentration in μM with standard deviation (SD) of two repeats with duplicates. Myxovalargin A and DMSO (2.5%) were used as the positive and negative controls, respectively.

[5] = biological target: T1, glutathione reductase (GR) from E. coli (Escherichia coli, UniProt P06715); assay: GR inhibition assay (DTNB reduction); type: biochemical; conditions: ± standard deviation, n = 3, 75 min preincubation
T1 construct: purchased Antibodies online
T1 sequence (P06715 1-450): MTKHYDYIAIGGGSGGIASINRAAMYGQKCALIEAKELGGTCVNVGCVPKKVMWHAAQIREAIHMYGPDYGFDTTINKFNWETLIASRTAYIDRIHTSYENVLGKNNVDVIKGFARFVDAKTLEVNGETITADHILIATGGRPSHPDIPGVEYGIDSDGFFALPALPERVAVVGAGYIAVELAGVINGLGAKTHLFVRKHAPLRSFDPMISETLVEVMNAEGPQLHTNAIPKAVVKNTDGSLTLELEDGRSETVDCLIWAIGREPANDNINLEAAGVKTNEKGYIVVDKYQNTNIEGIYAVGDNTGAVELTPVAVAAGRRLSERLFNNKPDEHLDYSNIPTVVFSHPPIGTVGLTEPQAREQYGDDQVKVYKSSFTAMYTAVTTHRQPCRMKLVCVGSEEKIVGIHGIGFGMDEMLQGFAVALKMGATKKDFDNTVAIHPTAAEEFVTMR
Description: (§2) The inhibition of purified E. coli thioredoxin reductase (TrxR) and glutathione reductase (GR) from both E. coli and baker’s yeast was determined according to a previously applied procedure.[59],[60]
(§3) The TrxR (E. coli) and GR (baker’s yeast and E. coli) inhibition assays were performed according to previously published procedures.[62],[75] The assays are partly based on the procedure developed by Lu et al.[60] and make use of the reduction of 5,5′-dithiobis(2-nitrobenzoic acid) (DTNB). Solutions of E. coli TrxR (35.4 U/mL) and E. coli thioredoxin (Trx) (156 μg/mL) (both purchased from Sigma-Aldrich) or baker’s yeast GR (0,08 U/mL, Sigma-Aldrich) or E. coli GR (4.2 U/ml, Antibodies online) and GSSG (0.28 mM, Sigma-Aldrich) in distilled water were prepared, as were fresh 2 mM stock solutions of the test compounds in DMSO. Then, solutions with several concentrations of the test compounds in DMSO were prepared, and 35 μL of each solution was diluted with 965 μL of TE buffer (Tris–HCl 50 mM, EDTA 1 mM, pH 7.5). These solutions (20 μL) or TE buffer without the test compounds (20 μL, as control) were mixed with the TrxR or GR solutions (10 μL), the Trx or GSSG solutions (10 μL), and a solution of NADPH (200 μM) in TE buffer (100 μL) in a well on a 96-well plate. As a blank solution, 200 μM NADPH in TE buffer (100 μL) mixed with a DMSO/buffer mixture (40 μL) was used (final concentrations of DMSO: 0.5% v/v). The plate was incubated for 75 min at 25 °C with moderate shaking. After incubation, 100 μL of a reaction mixture (TE buffer containing 200 μM NADPH and 5 mM DTNB) was added to each well to initiate the reaction. After thorough mixing, the formation of 5-TNB was monitored by a microplate reader at 405 nm in 35 s intervals (10 measurements). The values were corrected by subtraction of the blank solution absorption values. The increase in the concentration of 5-TNB followed a linear trend (r^2 ≥ 0.990), and the enzymatic activities were calculated as the gradients (increase in absorbance per second) thereof. […] The inhibition is presented as the mean IC50 values and standard deviations obtained in three independent experiments.

[6] = biological target: E. coli thioredoxin reductase (TrxR) (Escherichia coli, UniProt P0A9P4); conditions: read-out: IC50 TrxR from E. coli; ± standard deviation, n = 3, 75 min preincubation
E. coli thioredoxin reductase (TrxR), sequence (P0A9P4 whole entry): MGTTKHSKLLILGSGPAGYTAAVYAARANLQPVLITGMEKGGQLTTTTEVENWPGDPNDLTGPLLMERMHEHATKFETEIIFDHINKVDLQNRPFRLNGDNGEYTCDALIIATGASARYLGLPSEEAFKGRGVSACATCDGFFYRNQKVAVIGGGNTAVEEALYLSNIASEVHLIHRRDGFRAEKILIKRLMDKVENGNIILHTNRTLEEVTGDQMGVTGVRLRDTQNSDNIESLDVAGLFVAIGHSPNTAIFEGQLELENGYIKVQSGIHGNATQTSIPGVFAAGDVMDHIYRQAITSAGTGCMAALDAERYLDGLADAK
Description: as §2, §3

Row | Structure (SMILES) | MIC A. baumannii [1] [µM] | EC50 [1] [nM] | MIC A. baumannii (value in brackets) [1] [µg/mL] | MIC MRSA [2] [µM] | EC50 [2] [µM] | MIC MRSA (value in brackets) [2] [µg/mL] | MIC E. faecium [3] [µM] | EC50 [3] [µM] | MIC E. faecium (value in brackets) [3] [µg/mL] | smallest active concentration for biofilm inhibition [4] [µM] | biofilm inhibition [4] [%] | IC50 [5] [nM] | IC50 [6] [nM]
1 | CC(C)n1[c](=[Ag][I])n(Cc2ccccn2)c2ccccc21 [3c, Iodido (1-Isopropyl-3-(pyridin-2-ylmethyl)-benzimidazol-2-ylidene) Silver(I)] | 4.11 ± 0.0 | 1900 ± 100 | 2 | > 132 | > 132 | > 64 | 65.8 ± 0.0 | 60.9 ± 0.1 | 32 | 13.0 | 55 ± 19 | 39 ± 6 | 122 ± 15
2 | CC(C)n1[c](=[Ag][Cl])n(Cc2ccccn2)c2ccccc21 [3a, Chlorido (1-Isopropyl-3-(pyridin-2-ylmethyl)-benzimidazol-2-ylidene) Silver(I)] | 13.5 ± 3.4 | 1800 ± 300 | 5 | 162 ± 0.0 | 88.6 ± 1.6 | 64 | 162 ± 0.0 | 139 ± 0.4 | 64 | 7.9 | 71 ± 4 | 32 ± 2 | 103 ± 8
3 | COCCn1[c](=[Ag][I])n(Cc2ccccn2)c2ccccc21 [4c, Iodido (1-(2-Methoxyethyl)-3-(pyridin-2-ylmethyl)-benzimidazol-2-ylidene) Silver(I)] | 9.3 ± 3.5 | 1900 ± 100 | 5 | > 128 | > 128 | > 64 | > 128 | > 128 | > 64 | 6.2 | 66 ± 6 | – | –
4 | CC(C)n1[c](=[Ag][Br])n(Cc2ccccn2)c2ccccc21 [3b, Bromido (1-Isopropyl-3-(pyridin-2-ylmethyl)-benzimidazol-2-ylidene) Silver(I)] | 15.2 ± 3.0 | 530 ± 140 | 7 | 146 ± 0.0 | 78.8 ± 0.4 | 64 | 146 ± 0.0 | 123 ± 0.4 | 64 | 7.1 | 74 ± 5 | 41 ± 7 | 92 ± 8
